The nature of the data set: Human HepG2 cell viability assay in 384 well format. It counts as toxicity, cell-based. More on the design: dose 125 nL, time 70.5 hour; concentration not given beside the values. As to conditions: HepG2 cells, read-out: Inhibition.

We go through 95 compounds from ChEMBL document CHEMBL3507680, “University of Dundee, Gates Library screen for HepG2 cell viability”.

Consider `Cc1nc(C)c(CC(=O)NCc2ccc(F)cc2)s1`, for which the cytotoxicity at 70.5 h was -11.4%.

With `COc1ccccc1NC(=O)Cn1c(=O)nc(N)c2cc(C)sc21`, the cytotoxicity at 70.5 h is -16.1%.

As for `O=C(c1cc(=O)c(OCc2ccccc2F)co1)N1CCCC1`, the cytotoxicity at 70.5 h came out at 1.91%.

With `COC(=O)c1cc2c(=O)n(C3CC3)ccc2nc1C`, the cytotoxicity at 70.5 h was 2.32%.

For the compound `CC(C)NC(=O)c1csc(NC2CC2)n1`, the cytotoxicity at 70.5 h turned out to be 0.174%.

Regarding `CCCSc1nn(CCN(C)C)c2nc3sc(C)c(CC)c3c(=O)n12`, the cytotoxicity at 70.5 h came out at 32.5%.

Regarding `CCCSc1nn(CCCN(C)C)c2nc3sc(C)c(CC)c3c(=O)n12`, the cytotoxicity at 70.5 h is 11.5%.

Take `COc1ccc2cnn(CC(=O)NCC3CCCO3)c(=O)c2c1OC` (stereo not given): the cytotoxicity at 70.5 h is -3.4%.

Take `CC(C)Nc1nc(C(=O)Nc2ccccn2)cs1`: the cytotoxicity at 70.5 h was -13.8%.

Take `O=C1CC(c2ccncc2)c2c(c(C(=O)O)cn2-c2ccccc2)N1` (stereo not given): the cytotoxicity at 70.5 h is -8.17%.

Turning to `CCc1c(C)sc2c1c(N)nc(=O)n2CCN1CCOCC1`, the cytotoxicity at 70.5 h stood at 9.55%.

Turning to `Cc1n[nH]c2c1C(c1ccc3c(c1)OCCO3)SCC(=O)N2` (stereo not given), the cytotoxicity at 70.5 h is -0.607%.

`CC1CCN(c2ccc(=O)n(CC(=O)NCCc3ccccc3)n2)CC1`: the cytotoxicity at 70.5 h was determined as 5.19%.

On to `CN1CCN(C(=O)c2cc3sccc3n2Cc2ccc(Cl)cc2)CC1`, for which the cytotoxicity at 70.5 h is -5.06%.

For the compound `CC(=O)N1CCN(CCNC(=O)c2nc3ccccc3c(=O)[nH]2)CC1`, the cytotoxicity at 70.5 h is -7.43%.

For `CC1CC(=O)c2cc(C(=O)N3CCc4ccccc4C3)c(=O)[nH]c2C1` (stereo not given), the cytotoxicity at 70.5 h was -2.25%.

For the compound `Cc1n[nH]c2nc(-c3cccc(Cl)c3)cc(C(=O)O)c12`, the cytotoxicity at 70.5 h was 9.1%.

In the case of `CN1CCN(C(=O)c2cc3sccc3n2Cc2ccccc2Cl)CC1`, the cytotoxicity at 70.5 h was -6.69%.

Take `Cc1nn(C)cc1C1CC(=O)Nc2c1cnn2C(C)(C)C` (stereo not given): the cytotoxicity at 70.5 h is -4.68%.

As to `O=C(CC1CC1)N1CCC2(CC1)CN(CCn1cccn1)C(=O)CO2`, the cytotoxicity at 70.5 h was -4.82%.

For the compound `O=S(=O)(C1CC1)N1CCc2ncc(Cn3cncn3)n2CC1`, the cytotoxicity at 70.5 h is -3.06%.

For `CN(C)Cc1nn(C)c2c1CN(C(=O)Nc1cccc(F)c1)C2`, the cytotoxicity at 70.5 h is -2.91%.

In the case of `CN(C)Cc1nn(C)c2c1CN(C(=O)Nc1ccc(F)cc1)C2`, the cytotoxicity at 70.5 h is -3.55%.

Consider `NC(=O)N1CC[C@H]2CO[C@H](CNC(=O)c3ccnnc3)[C@H]2C1`, for which the cytotoxicity at 70.5 h is -0.828%.

Regarding `O=C1[C@@H]2CCN(CC3CCOCC3)C[C@@H]2OCCN1c1ccccc1`, the cytotoxicity at 70.5 h came to 1.16%.

On to `O=C(c1ncn2c1CNS(=O)(=O)c1ccccc1-2)N1CCCCC1`, for which the cytotoxicity at 70.5 h was -2.38%.

`CCN1CC[C@]2(CN(C(=O)[C@H]3CCCO3)C[C@H]2c2ccccc2)C1=O`: the cytotoxicity at 70.5 h was -1.85%.

As for `CC(C)c1nc(-c2cc(C(=O)NCCCO)c3ccccn23)cs1`, the cytotoxicity at 70.5 h is -3.65%.

As for `N#Cc1cccc(CN2CCO[C@@H]3CNC[C@@H]32)c1`, the cytotoxicity at 70.5 h was -1.26%.

Turning to `CCn1ncc2c1CN(C(=O)c1ccc3c(c1)OCO3)CC2COC` (stereo not given), the cytotoxicity at 70.5 h is -1.24%.

In the case of `CN(C)CCOCc1nnc2n1CCN(c1cnccn1)CC2`, the cytotoxicity at 70.5 h came to 12.4%.

Regarding `CC(C)c1nc(-c2cc(C(=O)O)c3ccccn23)cs1`, the cytotoxicity at 70.5 h was 10.6%.

Take `CCS(=O)(=O)N1Cc2c(Cn3ccnc3)nn(C)c2C1`: the cytotoxicity at 70.5 h was -2.09%.

Regarding `O=C(NC1CC1)N1CCOC2(CCCN(c3cccc(F)c3)C2)C1` (stereo not given), the cytotoxicity at 70.5 h was -3.8%.

`N#Cc1cccc(N2CCCC3(CN(C(=O)[C@H]4CCCO4)CCO3)C2)c1` (stereo not given in full): the cytotoxicity at 70.5 h was -0.958%.

As for `CCN(CC)Cc1nc2c(o1)CN(C(=O)c1ccc3ncccc3c1)C2`, the cytotoxicity at 70.5 h was -4.56%.

Consider `CCC(C)Nc1ccc2c(c1)C1(CCOCC1)C(=O)N2c1ccccc1` (stereo not given), for which the cytotoxicity at 70.5 h is -7.71%.

Regarding `COc1cccc(CC(=O)N2CCc3nc(C(N)=O)sc3CC2)c1`, the cytotoxicity at 70.5 h is -8.31%.

`N#Cc1cccc(N2CCCC3(CN(C(=O)c4ccc[nH]4)CCO3)C2)c1` (stereo not given): the cytotoxicity at 70.5 h is -5.89%.

Regarding `CCc1cnc(N2C[C@H]3CN(Cc4ccc(OC)cc4)C(=O)[C@H]3C2)nc1`, the cytotoxicity at 70.5 h was -2.79%.

Take `N#Cc1cccc(N2CCOCC3(CCCN(C(=O)NC4CC4)C3)C2)c1` (stereo not given): the cytotoxicity at 70.5 h was -6.43%.

Take `COCCN1C(=O)C2(CCC(C(=O)Nc3ccccn3)CC2)N=C1C` (stereo not given): the cytotoxicity at 70.5 h is -11.2%.

As for `Cn1ccnc1C(=O)NCc1cc(=O)n2c(n1)CN(CC1CC1)CCC2`, the cytotoxicity at 70.5 h was -4.68%.

Turning to `CN1C(=O)CC2(CCN(Cc3cnn(C)c3)CC2)c2ccccc21`, the cytotoxicity at 70.5 h was -2.77%.

With `CNC(=O)[C@@H]1COC[C@H]2CN(C(=O)c3ccc(OC)cc3)C[C@H]21`, the cytotoxicity at 70.5 h is -2.56%.

`Cn1cc(CN2C[C@@H](N3CCCC3=O)[C@H]3OCCC[C@H]32)cn1`: the cytotoxicity at 70.5 h was -3.55%.

Regarding `CNC(=O)[C@@H]1COC[C@H]2CN(C(=O)c3cccc(OC)c3)C[C@H]21`, the cytotoxicity at 70.5 h turned out to be 9.55%.

For the compound `Cn1cc(CN2CCC3(CC2)CC(=O)Nc2ccccc23)cn1`, the cytotoxicity at 70.5 h is -1.78%.

As for `c1cnc(N2CC[C@@H]3[C@@H]2CCN3Cc2cccs2)nc1`, the cytotoxicity at 70.5 h was -4.98%.

Turning to `Cc1cccc(CN2C[C@@H]3OCCN(C)[C@@H]3C2)n1`, the cytotoxicity at 70.5 h is -11.9%.

On to `CCS(=O)(=O)N1CCc2ncnc(OC)c2CC1`, for which the cytotoxicity at 70.5 h was -5.9%.

Regarding `COc1ncccc1CN1C[C@@H]2COC[C@]2(CNC(=O)c2ccno2)C1`, the cytotoxicity at 70.5 h is -15.5%.

In the case of `c1cncc(N2CCOC3(CCCN(c4nncs4)C3)C2)c1` (stereo not given), the cytotoxicity at 70.5 h is -7.3%.

With `CS(=O)(=O)NC[C@]12COC[C@H]1CN(C(=O)CCc1ccccc1)C2`, the cytotoxicity at 70.5 h was -2.39%.

Regarding `CC(C)N(C)[C@@H]1CCN(C(=O)[C@H]2CCCO2)[C@H]1Cc1cnn(C)c1`, the cytotoxicity at 70.5 h was -4.8%.

Take `Cn1cc(C[C@H]2[C@@H](O)CCN2C(=O)C2CCC2)cn1`: the cytotoxicity at 70.5 h is -1.34%.

In the case of `O=C1CCCN1CC1CN(C(=O)N2CCOCC2)Cc2nccn2C1` (stereo not given), the cytotoxicity at 70.5 h is -2.04%.

Take `c1ccc(CN2CCOC3CNCC[C@H]32)cc1` (stereo not given in full): the cytotoxicity at 70.5 h came to 13.7%.

On to `CCOCC1CN(C(=O)c2cc(C)oc2C)Cc2c1cnn2C` (stereo not given), for which the cytotoxicity at 70.5 h is -0.121%.

Regarding `CC(C)NC(=O)[C@@H]1CN(Cc2ccc3c(c2)OCO3)C[C@H]2OCC[C@H]21`, the cytotoxicity at 70.5 h was -2.81%.

In the case of `Cn1nc(CNC(=O)CC#N)c2c1CN(CC1CC1)CC2`, the cytotoxicity at 70.5 h was -3.91%.

For `Cc1ccccc1N1CC2(CCCCN2CC2CC2)CC1=O` (stereo not given), the cytotoxicity at 70.5 h was -3.78%.

Regarding `Cc1cnc(N2CCOC3(CCCN(C)C3)C2)nc1` (stereo not given), the cytotoxicity at 70.5 h was -10.1%.

For `COc1cccc(CN2CCc3nc(C(N)=O)sc3CC2)c1`, the cytotoxicity at 70.5 h was -7.05%.

For the compound `O=S(=O)(C1CC1)N1CCC2(CN(c3ccccn3)C2)C1`, the cytotoxicity at 70.5 h was -7.95%.

On to `CCS(=O)(=O)N1CCC2(CN(c3cccc(C)n3)C2)C1`, for which the cytotoxicity at 70.5 h was -4.08%.

For `CC(C)C(=O)N1CCC2(CCN2CC2CC2)C1` (stereo not given), the cytotoxicity at 70.5 h is -4.62%.

For `CC(C)C(=O)N1CCC2(CN(CC3CCCC3)C2)C1`, the cytotoxicity at 70.5 h is -5.09%.

Consider `Cc1ccc(CN2C[C@@H]3CN(c4ncc(F)cn4)C[C@@H]3C2)cc1`, for which the cytotoxicity at 70.5 h was -1.01%.

For the compound `c1ccc(CN2Cc3[nH]nc(COCC4CC4)c3C2)nc1`, the cytotoxicity at 70.5 h was -4.63%.

`CN1CCc2c(c(COc3cncnc3)nn2CC2CC2)C1`: the cytotoxicity at 70.5 h is 5.89%.

For `CCc1cnc(N2CCC3(CC(=O)N(Cc4csc(C)n4)C3)C2)nc1` (stereo not given), the cytotoxicity at 70.5 h was -12%.

In the case of `CCCC(=O)N1CCOC2(COCCN(CC(=O)NC)C2)C1` (stereo not given), the cytotoxicity at 70.5 h was -10.5%.

Consider `CC(C)CN1CC[C@H]2OCC[C@@H](C(=O)N3CCCO3)[C@@H]2C1`, for which the cytotoxicity at 70.5 h was -18.2%.

Consider `CNC(=O)c1cc2c(nc1NCC1CC1)CCN(S(C)(=O)=O)CC2`, for which the cytotoxicity at 70.5 h is -23.3%.

As for `Cn1cc(CN2CCn3cc(Cn4cccn4)nc3C2)cn1`, the cytotoxicity at 70.5 h is 44.1%.

On to `O=C([C@@H]1CCO[C@@H]2CCN(CC3CCOCC3)C[C@H]21)N1CCCO1`, for which the cytotoxicity at 70.5 h is 46.7%.

Take `Cc1ccc(CN2CC[C@H]3OCC[C@@H](C(=O)N4CCCCO4)[C@@H]3C2)o1`: the cytotoxicity at 70.5 h was 47.1%.

In the case of `COCC(=O)N1CCCC2(CCN(Cc3cccc(C)n3)C2=O)C1` (stereo not given), the cytotoxicity at 70.5 h is -0.526%.

Regarding `COCCN1CCOCC12CCN(Cc1ccn(C)n1)CC2`, the cytotoxicity at 70.5 h was -5.01%.

As to `Cc1nc(Cn2c3c(ccc2=O)CCN(CC2CCC2)CC3)cs1`, the cytotoxicity at 70.5 h was -9.15%.

Turning to `COCCN1CCc2ccc(=O)n(Cc3csc(C)n3)c2CC1`, the cytotoxicity at 70.5 h is -6.35%.

Consider `CCn1cc2c(n1)C(COC)CN(c1ccc(C)nn1)C2` (stereo not given), for which the cytotoxicity at 70.5 h was -7.13%.

Consider `c1cnc(N2CCC3(CC2)CC(NCC2CC2)c2ccccc23)nc1` (stereo not given), for which the cytotoxicity at 70.5 h was found to be 11.4%.

With `Fc1cnc(N2C[C@H]3CN(Cc4cccc(F)c4)C[C@H]3C2)nc1`, the cytotoxicity at 70.5 h was -13.6%.

Turning to `c1ccc(CNCC2Cn3nnc(-c4ccncc4)c3CO2)nc1` (stereo not given), the cytotoxicity at 70.5 h is -4.04%.

In the case of `c1csc(CN2Cc3[nH]nc(COCC4CC4)c3C2)c1`, the cytotoxicity at 70.5 h is -8.6%.

As for `Cc1nc(CN2CC[C@H]3[C@H]2CCN3c2nncs2)cs1`, the cytotoxicity at 70.5 h was -3.7%.

Take `CC(C)N1CCOCC2(CN(Cc3cccs3)CCO2)C1` (stereo not given): the cytotoxicity at 70.5 h is -0.496%.

On to `CNC(=O)[C@H]1C[C@@H]2CN(Cc3cccnc3OC)C[C@@H]2N1C(C)C`, for which the cytotoxicity at 70.5 h is -7.89%.

Turning to `CN(C)CCN1CCCC12CCCN(Cc1ccco1)C2` (stereo not given), the cytotoxicity at 70.5 h was 7.41%.

Consider `COc1ncccc1CN1CC[C@]2(C[C@@H](OCc3ccccn3)CO2)C1`, for which the cytotoxicity at 70.5 h is -13.8%.

As for `c1cc(CN2CCOCC3(C2)CN(Cc2nccs2)CCO3)ccn1` (stereo not given), the cytotoxicity at 70.5 h was determined as 17.5%.

Take `CN(C)CCN1CCOCC2(C1)CN(Cc1nccs1)CCO2` (stereo not given): the cytotoxicity at 70.5 h came out at 16.3%.

Consider `COc1ccccc1CCNC(=O)C1CCC(Cn2cnnn2)CC1` (stereo not given), for which the cytotoxicity at 70.5 h is -18.1%.
